Experimental data: patent US5863917A, “Quinoxaline derivatives useful in therapy” (Pfizer, Inc., priority 1996, dated 1999)

Biological target: T1, glycine site of the NMDA receptor (Rattus norvegicus, UniProt P35439)
T1 construct: rat brain membranes; from tissue; host or cells: rat brain membranes
Assay: Binding affinity for the glycine site of the NMDA receptor (test (a))
Details: displacement of a selective glycine site radioligand ([3H]-L-689,560) from rat brain membranes, tris-acetate buffer pH 7.4, 90 minutes
Method: (a) Binding affinity for the glycine site of the NMDA receptor
This may be measured by testing a compound's ability to displace a selective glycine site radioligand from rat brain membranes as described in Brit J Pharm (1991), 104, 74. In a variation of this method, thoroughly washed membrane protein is incubated with [^3 H]-L-689,560 for 90 minutes using tris-acetate buffer (pH 7.4). Displacement of the radioligand, using a range of test compound concentrations, is used to derive IC50 (50% inhibitory concentration) values.

Compound | IC50 [nM]
CCOC(=O)CN(c1c(C)c(C)cc2[nH]c(=O)c(=O)[nH]c12)S(C)(=O)=O [Example 11] | < 100
CS(=O)(=O)NCCN(c1c(Cl)c(Cl)cc2[nH]c(=O)c(=O)[nH]c12)S(C)(=O)=O [Example 1, N-(1,4-Dihydro-6,7-dichloro-2,3-dioxoquinoxalin-5-yl)-N-(2-(N'-methanesulphonyl)-aminoethyl)methanesulphonamide] | < 100
COC(=O)CN(c1c(C)c(C)cc2[nH]c(=O)c(=O)[nH]c12)S(C)(=O)=O [Example 10] | < 100
Cc1cc2[nH]c(=O)c(=O)[nH]c2c(N(CC(=O)O)S(C)(=O)=O)c1Cl [5 [the (-)-isomer]] | < 100
Cc1c(Cl)cc2[nH]c(=O)c(=O)[nH]c2c1N(CCNS(=O)(=O)C(F)(F)F)S(C)(=O)=O [Example 4] | < 100
CCCOC(=O)CN(c1c(C)c(C)cc2[nH]c(=O)c(=O)[nH]c12)S(C)(=O)=O [Example 12] | < 100
Cn1cnc(S(=O)(=O)NCCN(c2c(Cl)c(Cl)cc3[nH]c(=O)c(=O)[nH]c23)S(C)(=O)=O)c1 [Example 2, N-(1,4-Dihydro-6,7-dichloro-2,3-dioxoquinoxalin-5-yl)-N-(2-(N'-4-(1H-1-methylimidazolyl)sulphonyl)aminoethyl)methanesulphonamide] | < 100
Cc1c(Cl)cc2[nH]c(=O)c(=O)[nH]c2c1N(CC(=O)O)S(C)(=O)=O [Example 3, N-(Carboxymethyl)-N-(1,4-dihydro-7-chloro-6-methyl-2,3-dioxoquinoxalin-5-yl)methanesulphonamide] | < 100
Cc1cc2[nH]c(=O)c(=O)[nH]c2c(N(CC(=O)O)S(C)(=O)=O)c1C [Example 7, N-(Carboxymethyl)-N-(1,4dihydro-6,7-dimethyl-2,3-dioxoquinoxalin-5-yl)methanesulphonamide] | < 100
